Experiments:
[1] = tested on: PAO; test: PAO activity ex vivo in the liver of mice dosed i.p. 24 hours before; settings: mouse liver, Dose 1.0 mg/kg i.p., control 18.7
Description: MEASUREMENT OF PAO ACTIVITIES IN MOUSE TISSUES
Chim. Biophys. Acta 38: 69-76.

[2] = biological target: Rat Liver Pao (Rattus norvegicus, UniProt A0A8I6AEP5); test: In vitro inhibition of partially purified rat liver polyamine oxidase (PAO); format: biochemical
Protocol: Polyamine Oxidase Inhibition^1
Rat liver polyamine oxidase was purified by the procedure of Holtta, E.
step. Ki and .tau.50 were determined using the partially

[3] = tested on: P. berghei; settings: cited from earlier work
[4] = tested on: P. gallinaceum; settings: P. gallinaceum in chickens; cited from earlier work
[5] = tested on: Pneumocystis carinii; settings: cited from earlier work
[6] = tested on: T. b. brucei; settings: in mice; cited from earlier work
[7] = tested on: Eimeria spp.; settings: cited from earlier work
[8] = tested on: Plasmodia spp.; settings: liver of infected mice; cited from earlier work
[9] = tested on: Plasmodia spp.; settings: cited from earlier work
[10] = tested on: Plasmodia spp.; settings: in culture in vitro; cited from earlier work
[11] = tested on: ODC; settings: cited from earlier work
[12] = tested on: ODC and AdoMetDC; settings: cited from earlier work
[13] = tested on: natural polyamines; settings: exposure of cells; cited from earlier work
[14] = tested on: L1210 cells; settings: cited from earlier work

Rat Liver Pao, sequence (A0A8I6AEP5 62-564): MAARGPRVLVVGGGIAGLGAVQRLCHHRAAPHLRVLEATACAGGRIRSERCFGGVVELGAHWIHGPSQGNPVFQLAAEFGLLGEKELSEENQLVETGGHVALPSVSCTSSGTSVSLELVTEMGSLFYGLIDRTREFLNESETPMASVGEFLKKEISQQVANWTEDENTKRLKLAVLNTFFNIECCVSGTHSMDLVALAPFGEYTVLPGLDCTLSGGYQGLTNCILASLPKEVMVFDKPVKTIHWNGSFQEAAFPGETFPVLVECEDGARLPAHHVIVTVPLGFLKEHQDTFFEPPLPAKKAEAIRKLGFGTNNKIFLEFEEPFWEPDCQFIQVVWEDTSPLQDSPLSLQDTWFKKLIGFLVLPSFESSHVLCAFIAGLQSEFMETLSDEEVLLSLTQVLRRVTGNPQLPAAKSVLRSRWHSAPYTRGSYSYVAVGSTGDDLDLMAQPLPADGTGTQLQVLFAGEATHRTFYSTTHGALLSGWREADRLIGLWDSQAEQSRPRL

Compound | PAO Activity [1] | .tau.50 [2] | repression of ODC and AdoMetDC [12] | depletion of the natural polyamines [13] | support of growth of L1210 cells [14] | other results
C=C=CCNCCCNCCCNCC=C=C [Compound 46] | 1.0 p/mol/min/mg protein | 4.0 min |  |  |  | 
C=C=CCNCCCNCCCCCCCCNCCCNCC=C=C [Compound 51] | 4.1 p/mol/min/mg protein | 2.0 min |  |  |  | 
NCCC[C@](N)(C(=O)O)C(F)F [DFMO, α-difluoromethylornithine] |  |  |  |  |  | curative effect on erythrocytic forms of malaria in vivo ([3]; P. berghei in mice): no curative effects; parasitemia in P. berghei infections ([3]; P. berghei infections): significantly reduce parasitemia; curative effect on erythrocytic forms of malaria in vivo [4]: no curative effects; sensitivity of Pneumocystis carinii [5]: sensitive; cure of acute infections of T. b. brucei [6]: totally cure acute infections; sensitivity of Eimeria spp. [7]: sensitive; exoerythrocytic schizogony in the liver [8]: inhibit the cycle in the liver of infected mice; sporogonous cycle in the mosquito vector [9]: completely inhibit the sporogonous cycle in the mosquito vector; erythrocytic replication (schizogony) [10]: block erythrocytic replication (schizogony) in culture in vitro; inhibition of ODC [11]: inhibits ODC
CCNCCCCNCCCNCC [N^1,N^8 -bis(ethyl)spermidine] |  |  | mimic the action of their parent polyamines in the repression of ODC and AdoMetDC | leads to the depletion of the natural polyamines | will not support growth of L1210 cells | 
CCNCCCNCCCCNCCCNCC [N^1,N^12 -bis(ethyl)spermine] |  |  | mimic the action of their parent polyamines in the repression of ODC and AdoMetDC | leads to the depletion of the natural polyamines | will not support growth of L1210 cells | 
